Laboratory results as given in PubChem BioAssay (NCI).
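Where inhibition never reached the appropriate level, the endpoint shown equals the highest concentration tested. Otherwise, values were interpolated linearly from a five-concentration, 48-hour dose response in 96-well plates. The concentration for 50% growth inhibition is given as GI50. At the TGI there is no net growth.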

Legend:
Experiment in all cases: NCI anticancer screen, dose series, 48 h
786-0 renal = test system: 786-0 renal
BT-549 breast = test system: BT-549 breast
HOP-62 NSCLC = test system: HOP-62 NSCLC
HOP-92 NSCLC = test system: HOP-92 NSCLC
OVCAR-3 ovarian = test system: OVCAR-3 ovarian
SF-539 CNS = test system: SF-539 CNS
SK-MEL-28 melanoma = test system: SK-MEL-28 melanoma
TK-10 renal = test system: TK-10 renal
UACC-257 melanoma = test system: UACC-257 melanoma
UACC-62 melanoma = test system: UACC-62 melanoma

Row | Compound | GI50 (786-0 renal) [µM] | TGI (786-0 renal) [µM] | GI50 (BT-549 breast) [µM] | TGI (BT-549 breast) [µM] | GI50 (HOP-62 NSCLC) [µM] | TGI (HOP-62 NSCLC) [µM] | GI50 (HOP-92 NSCLC) [µM] | TGI (HOP-92 NSCLC) [µM] | GI50 (OVCAR-3 ovarian) [µM] | TGI (OVCAR-3 ovarian) [µM] | GI50 (SF-539 CNS) [µM] | TGI (SF-539 CNS) [µM] | GI50 (SK-MEL-28 melanoma) [µM] | TGI (SK-MEL-28 melanoma) [µM] | GI50 (TK-10 renal) [µM] | TGI (TK-10 renal) [µM] | GI50 (UACC-257 melanoma) [µM] | TGI (UACC-257 melanoma) [µM] | GI50 (UACC-62 melanoma) [µM] | TGI (UACC-62 melanoma) [µM]
1 | CCCCC(=O)N(c1ccc(Nc2c3ccccc3nc3cc([N+](=O)[O-])ccc23)cc1)S(C)(=O)=O | 4.3 | > 100 | 18.4 | 80.6 | 4.52 | 52.5 | 3.57 | 21.5 | 14.2 | 66.6 | 5.23 | > 61.9 | 14.5 | 36.6 | 7.61 | > 84 | 14.6 | 62.5 | 7.12 | 26.1
2 | O=C(Nc1nc(-c2ccc(Cl)cc2)cs1)c1cc(O)c(O)c(O)c1 | 218 | 1020 | 252 | 1870 | 255 | 1880 | 115 | 1050 | 245 | 1080 | 173 | 843 | 303 | > 5000 | 207 | 1470 | 278 | 2490 | 158 | 958
3 | COC(=O)c1c[nH]c2cc(OC(C)C)c(OC(C)C)cc2c1=O | > 100 | > 100 | > 100 | > 100 | 79.6 | > 100 | > 100 | > 100 | > 100 | > 100 | > 100 | > 100 | > 100 | > 100 | > 100 | > 100 | > 100 | > 100 | > 100 | > 100
4 | Nc1[nH]nc2nc(-c3cc(Cl)ccc3Cl)cc(-c3ccc(F)cc3)c12 | 23.7 | 59.2 | 14.3 | 31.3 | 22.7 | 47.8 | 14.5 | 30 | 24 | 65.4 |  | 21.1 | 36.9 | > 100 | 52.9 | > 100 | 25.2 | 68.3 | 16 | 32.4
5 | C[C@@H](Nc1cc(F)cc(F)c1)c1cc(C(=O)N(C)C)cc2c(=O)cc(N3CCOCC3)oc12 | 0.192 | > 100 | 0.14 | 38.4 | 7.13 | > 100 | < 0.0389 | 13 | 1.25 | 61.8 | 3.58 | 50.3 | 2.5 | > 100 | 2.64 | > 100 | 2.6 | > 100 | 1.13 | 20.9
6 | COc1cc2c(cc1OC)C(C(CCCCCC(CCC(C)C)C1NCCc3cc(OC)c(OC)cc31)CCC(C)C)NCC2 (stereo not given) | 1.73 | 3.46 | 1.72 | 3.12 | 1.55 | 3.11 | 0.808 | 2.46 | 1.61 | 3.12 | 1.79 | 3.27 | 1.85 | 3.28 | 1.76 | 3.21 | 1.63 | 3.08 | 1.59 | 2.97
7 | CN(C)c1ccc(/C=C(\C#N)c2cc3ccccc3[nH]2)cc1 | 2.52 | > 100 | 3.86 | > 100 | 1.16 | 4.54 | 1.42 | 5.53 | 0.409 | 4.06 | 1.97 | 35.1 | 2.63 | > 100 | 2.66 | > 100 | 4.86 | > 100 | 0.679 | > 100
8 | CCc1nc(C)cn1C(=O)OCc1nc2nc(Cl)nc(N3CCOCC3)c2[nH]1 | 1.61 | 3.29 | 1.55 | 4.26 | 1.54 | 3.56 | 0.88 | 2.41 | 0.636 | 1.98 | 1.27 | 2.54 | 1.78 | 3.2 | 1.79 | 3.28 | 1.6 | 3.26 | 1.44 | 2.75
9 | C=C1c2nc3ccccc3n2C=C(c2cccc(Cl)c2)N1Cc1ccc(OC)cc1 | 3.08 | 17.3 | 1.7 | > 100 | 2.35 | 39.8 | 2.36 | > 82.4 |  |  | 0.745 | 4.56 | 10.5 | 54.4 | 6.64 | > 64.9 | 5.64 | > 100 | 0.937 | 19.1
10 | COc1ccc(OC)c(Nc2nc3nonc3nc2Nc2cccc(Br)c2)c1 | 1.71 | 13.8 | 0.537 | 6.97 | 1.62 | 7.43 | 0.266 | 3.55 | 0.6 | 21.6 | 1.25 | 29.5 | 0.779 | > 100 | 0.988 | 16.5 | 0.508 | 7.37 | 0.301 | 14.1
11 | Oc1ccc2c(=S)cc(-c3ccc(Br)cc3)oc2c1O | 2.89 | 11.1 | 2.19 | 14.6 | 1.5 | 6.73 | 1.69 | 6.11 |  |  | 1.98 | 7.28 | 2.94 | 28.7 | 4.16 | 14.7 | 2.88 | 8.25 | 2.09 | 4.85
12 | Cc1ccc(N(C=O)c2c([N+](=O)[O-])cc([N+](=O)[O-])c3c2=[N+]([O-])CN=3)cc1 |  | 67.6 |  | 69 |  | > 100 |  | 60.1 |  | 73.6 |  | > 100 |  | > 100 |  | 78.7 |  | 58 |  | 29.8
